For series [1] the following is noted: rat, in vivo.
The conditions of series [2]: male, Crl:CD (SD), rat, in vivo, po, 1 mg/kg.

The values that follow come from patent publication US9809563B2 (GIFU University, priority 2014, dated 2017).

Molecules are shown by their SMILES. Structures can show the parent of a compound that is named as a salt. Where two headings read alike, the source gives them in different places.

For `O=C(CN1CCCC1)Nc1ccc(C(c2ccc(NC(=O)CN3CCCC3)cc2)C2CCCCC2)cc1` [maleic acid salt, N,N′-[(cyclohexylmethylene)di-4,1-phenylene]bis[2-(1-pyrrolidinyl)acetamide] maleate], in series [1], the “Concentrations of radioactivity in the cerebrum and cerebellum compared with blood” value is “higher than those in the blood”; the “Radioactivity in tissues relative to plasma” value is recorded as 100 fold. Besides, in series [1] (iv, 1 mg/kg), the “Blood concentration of radioactivity/plasma concentration of radioactivity (RB)” value is listed as 10.18, the “Distribution to blood cells (T)” value was found to be 93.7%, the “Radioactivity concentration Blood (Cb)” value worked out at 39.7 ng eq./mL and the “Radioactivity concentration Plasma (Cp)” value was determined as 3.9 ng eq./mL. Also, in series [1] (iv, 10 mg/kg), the “Blood concentration of radioactivity/plasma concentration of radioactivity (RB)” value is given as 19.52, the “Distribution to blood cells (T)” value is listed as 96.5%, the “Radioactivity concentration Blood (Cb)” value is 407.9 ng eq./mL and the “Radioactivity concentration Plasma (Cp)” value stood at 20.9 ng eq./mL. In addition, in series [1] (po, 1 mg/kg), the “Blood concentration of radioactivity/plasma concentration of radioactivity (RB)” value is given as 4.55, the “Distribution to blood cells (T)” value turned out to be 86.0%, the “Radioactivity concentration Blood (Cb)” value stood at 10.0 ng eq./mL and the “Radioactivity concentration Plasma (Cp)” value is listed as 2.2 ng eq./mL. The “tmax Time required to reach maximum radioactivity concentration” value in series [2] was 4.0 h.
